Experimental data taken from ChEMBL document CHEMBL5506003, “Design and biological evaluation of dual tubulin/HDAC inhibitors based on millepachine for treatment of prostate cancer” (Eur J Med Chem, 2024).

What was measured:
[1] = biological target: T1, Histone deacetylase 7 (Homo sapiens, UniProt Q8WUI4); test: Inhibition of HDAC7 in human HeLa nuclear extracts incubated for 30 mins by fluorescence based assay; type: cell-free
T1 sequence (Q8WUI4 whole entry): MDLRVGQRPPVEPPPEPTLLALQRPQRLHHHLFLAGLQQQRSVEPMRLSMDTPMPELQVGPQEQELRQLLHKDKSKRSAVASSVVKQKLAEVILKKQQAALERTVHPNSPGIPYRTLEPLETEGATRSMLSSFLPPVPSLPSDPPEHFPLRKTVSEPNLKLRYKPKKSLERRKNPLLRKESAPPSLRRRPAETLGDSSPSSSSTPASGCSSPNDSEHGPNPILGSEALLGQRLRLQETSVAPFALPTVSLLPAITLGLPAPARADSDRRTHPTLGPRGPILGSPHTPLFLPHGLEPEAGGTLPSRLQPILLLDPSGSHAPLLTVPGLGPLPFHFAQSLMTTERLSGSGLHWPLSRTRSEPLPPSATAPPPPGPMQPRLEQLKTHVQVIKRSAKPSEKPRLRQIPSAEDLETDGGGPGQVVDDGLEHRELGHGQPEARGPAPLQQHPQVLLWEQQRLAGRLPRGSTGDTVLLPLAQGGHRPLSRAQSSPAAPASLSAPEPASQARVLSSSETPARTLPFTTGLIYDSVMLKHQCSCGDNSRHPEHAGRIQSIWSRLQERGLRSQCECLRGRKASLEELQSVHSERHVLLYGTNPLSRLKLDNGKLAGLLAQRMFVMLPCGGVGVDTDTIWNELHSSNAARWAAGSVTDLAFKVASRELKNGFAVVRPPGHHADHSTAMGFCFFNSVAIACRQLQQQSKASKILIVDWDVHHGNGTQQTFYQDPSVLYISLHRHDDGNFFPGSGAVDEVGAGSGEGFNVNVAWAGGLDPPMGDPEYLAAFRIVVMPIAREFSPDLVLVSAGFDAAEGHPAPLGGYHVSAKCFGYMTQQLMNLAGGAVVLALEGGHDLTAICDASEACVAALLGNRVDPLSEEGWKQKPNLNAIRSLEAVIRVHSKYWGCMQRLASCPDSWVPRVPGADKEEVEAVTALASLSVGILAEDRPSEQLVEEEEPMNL

[2] = biological target: Tubulin (Homo sapiens) (UniProt P68371+Q9H4B7+P0DPH7+P68366+Q13509+Q71U36+P04350+Q3ZCM7+P07437+P68363+Q9BQE3+Q6PEY2+Q13885+Q9BVA1+Q9BUF5); test: (§1) Inhibition of tubulin polymerization (unknown origin) measured after 60 mins by fluorescence based assay; type: protein-complex assay
[3] = biological target: Tubulin; test: as §1; type: protein-complex assay, Homo sapiens
[4] = test system: PC-3; test: Induction of apoptosis in human PC-3 cells assessed as early apoptotic cells at 0.08 uM incubated for 24 hrs by Annexin V-FITC and PI staining based flow cytometry (reference value: 1.32%); type: functional

With `COc1ccc(/C=C/C(=O)c2ccc(OC)c3c2OC(C)(C)C=C3)cc1NCC(=O)NO` the IC50 [1] was 2.34 µM, the inhibition [2] was “Dose-Dependent Effect” and the IC50 [3] was 4.82 µM. The Activity [4] was 2.52%.
